Measurements published in patent publication US9150555B2, “Amide derivative and use thereof” (Mitsubishi Tanabe Pharma Corporation, priority 2010, dated 2015).

Key:
[1] = test system: IL-17 production of mouse spleen cells stimulated by rm-IL-23; experiment: Production of IL-17 induced when mouse spleen cells were stimulated by recombinant mouse interleukin-23 (rm-IL-23); format: cell-based; settings: Mus musculus, 72 h, inhibition of IL-17 production, DBA/1J mouse spleen cells, rm-IL-23 1 nmol/L, ELISA
Method in brief: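 Spleen cells from 6-7 week-old male DBA/1J mice, 2×10^5 cells/well in 10% FCS RPMI1640, cultured 72 h at 37° C with compound (1 to 1,000 nmol/L) plus 1 nmol/L rm-IL-23. IL-17 in supernatant by ELISA; viability by WST-8 absorbance at 450 nm; IC50 by linear regression of inhibition rate.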

hERG = hERG (Homo sapiens, UniProt Q12809); experiment: Effects on hERG current (whole-cell clamping); settings: human, HEK 293 cells that express hERG, pH 7.4, hERG inhibition rate (%) (1 μM), 1 μM; tail peak current; hERG-expressed HEK 293 cells
hERG, sequence (Q12809 whole entry): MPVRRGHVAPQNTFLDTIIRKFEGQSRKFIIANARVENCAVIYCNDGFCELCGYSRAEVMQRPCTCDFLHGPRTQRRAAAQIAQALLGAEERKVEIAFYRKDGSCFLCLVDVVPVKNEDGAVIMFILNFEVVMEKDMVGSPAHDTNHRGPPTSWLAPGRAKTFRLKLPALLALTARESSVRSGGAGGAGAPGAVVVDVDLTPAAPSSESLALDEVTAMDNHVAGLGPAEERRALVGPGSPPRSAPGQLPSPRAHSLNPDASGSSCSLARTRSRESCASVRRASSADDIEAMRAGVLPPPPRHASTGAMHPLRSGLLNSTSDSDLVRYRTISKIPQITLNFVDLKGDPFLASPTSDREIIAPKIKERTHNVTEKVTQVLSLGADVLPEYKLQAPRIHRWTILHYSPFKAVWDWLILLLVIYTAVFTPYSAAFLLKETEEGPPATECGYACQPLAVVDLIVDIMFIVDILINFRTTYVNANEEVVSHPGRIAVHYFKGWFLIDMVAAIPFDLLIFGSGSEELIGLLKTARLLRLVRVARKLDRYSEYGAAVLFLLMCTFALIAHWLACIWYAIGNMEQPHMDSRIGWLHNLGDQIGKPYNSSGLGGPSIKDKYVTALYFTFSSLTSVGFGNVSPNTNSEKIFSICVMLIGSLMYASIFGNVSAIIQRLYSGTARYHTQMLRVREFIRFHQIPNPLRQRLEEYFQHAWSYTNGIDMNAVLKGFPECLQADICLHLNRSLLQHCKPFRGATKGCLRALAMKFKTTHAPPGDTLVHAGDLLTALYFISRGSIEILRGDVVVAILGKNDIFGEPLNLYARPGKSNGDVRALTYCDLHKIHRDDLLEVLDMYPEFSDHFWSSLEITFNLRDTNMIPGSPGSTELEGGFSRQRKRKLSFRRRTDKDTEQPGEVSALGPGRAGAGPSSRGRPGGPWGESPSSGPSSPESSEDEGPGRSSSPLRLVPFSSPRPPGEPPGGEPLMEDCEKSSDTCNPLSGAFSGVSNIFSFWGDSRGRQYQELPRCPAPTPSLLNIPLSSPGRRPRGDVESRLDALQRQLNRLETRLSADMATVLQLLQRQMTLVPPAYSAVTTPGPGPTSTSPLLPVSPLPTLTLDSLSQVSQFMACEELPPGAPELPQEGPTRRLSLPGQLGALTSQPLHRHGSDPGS
Description: Dimethylsulfoxide was used as a vehicle and hERG-expressed HEK 293 cells (Cytomyx) were used as test cells. Test cells were once cultured and subdivided and were stored under frozen condition in liquid nitrogen. In the study, thawed and subcultured cells having less than 30 of the passage number were used. Test cells were cultured in a carbon dioxide incubator BNP-110M (Tabai Espec Corp.) at 37±1° C., and 5.0±0.5% of carbon dioxide concentration. The component of culture medium was MEM (Minimum Essential Medium) supplemented with 10 vol % fetal bovine serum (non-activated), 1 mmol/L sodium pyruvate, 0.1 mmol/L non-essential amino acid, 100 U/mL penicillin with 100 μg/mL streptomycin. To select gene-expressing cells, 400 μg/mL G418 Sulphate (Invitrogen) was added to the culture medium. In the dishes for the measurement, the medium which not contain G418 Sulphate (Invitrogen) was used.
As to seeding of cells for measurement, subcultured cells which became confluent were treated with 0.25% trypsin-solution containing 1 mmol/L EDTA (Invitrogen) to remove from the plate, and seeded on sterilized collagen-coated cover glass (Iwaki, AGC Techno Glass Co., LTD). The medium was exchanged appropriately, including the day of measurement.
A perfusion method was applied to the experiment. Test cells were perfused (perfusion speed: approximately 4 mL/min) with an external solution containing specified concentrations of test compounds (component of external solution: 137 mmol/L of sodium chloride, 4 mmol/L of potassium chloride, 10 mmol/L of HEPES, 1.8 mmol/L of calcium chloride, 1 mmol/L of magnesium chloride and 10 mmol/L of glucose; adjusted to pH 7.4±0.1 with sodium hydroxide aqueous solution). […] When effects were observed, the perfusion was continued until the maximum response was observed. […] The data were obtained from one experiment or more and the cells which were incubated in a carbon dioxide incubator after seeding and attached to cover slips were used for the measurement.
A whole-cell clamping method was applied to the measurement. Test cells were perfused (perfusion speed: approximately 4 mL/min) with an external solution (component of external solution: 137 mmol/L of sodium chloride, 4 mmol/L of potassium chloride, 10 mmol/L of HEPES, 1.8 mmol/L of calcium chloride, 1 mmol/L of magnesium chloride and 10 mmol/L of glucose; adjusted to pH 7.4±0.1 with sodium hydroxide aqueous solution). A glass electrode with a resistance of 2 to 6 MΩ, filled with an internal solution (component: 130 mmol/L of potassium chloride, 1 mmol/L of magnesium chloride, 5 mmol/L of EGTA, 10 mmol/L of HEPES and 5 mmol/L of ATP adjusted to pH 7.2±0.1 with sodium hydroxide aqueous solution) was used. After rupturing cell membrane with glass electrode, the cell membrane voltage was held at −80 mV via a patch clamp software (pCLAMP9 [Axon CNS], Molecular Devices) using patch clamp amplifier (EPC8, HEKA). […] Test cells and the cell-attached cover glass were changed every treatment. Temperature of the fluid in a perfusion fluid tank was 24±2° C.
The obtained current was recorded on a computer via a patch clamp amplifier using patch clamp software. An evaluation item was a tail peak current.
A tail peak current was analyzed using analyzing software (Clampfit 9 [Axon CNS], MolecularDevices). Each 2 pulses of before and after perfusion of test compound for each concentration was analyzed, and a peak values of the tail current on the pulses were determined. The inhibition ratio was determined according to the following equation:

IC50 [1]	SMILES	inhibition at 1 µM (hERG)
0.00811 µM	Cc1cc(NC(=O)c2cnn(-c3ccc(C(F)(F)F)cn3)c2C)cnc1C1=CCC(N(C)C(=O)C(C)(C)C)CC1 (stereo not drawn) [Example K28, N-(6-{4-[N-(2,2-Dimethylpropion-1-yl)-N-methylamino]cyclohex-1-en-1-yl}-5-methylpyridin-3-yl)-5-methyl-1-[5-(trifluoromethyl)pyridin-2-yl]-1H-pyrazole-4-carboxamide]	5.1%
0.368 µM	Cc1cc(NC(=O)c2cnn(-c3ccc(C(F)(F)F)cn3)c2C)cnc1C1=CCC(N(C)CCC(C)(C)C)CC1 (stereo not drawn) [Example K30, N-(6-[4-[N-(3,3-Dimethylbutyl)-N-methylamino]cyclohex-1-en-1-yl]-5-methylpyridin-3-yl)-5-methyl-1-[5-(trifluoromethyl)pyridin-2-yl]-1H-pyrazole-4-carboxamide]	79.6%
0.00427 µM	Cc1cc(NC(=O)c2cnn(-c3ccc(C(F)(F)F)cn3)c2C)cnc1C1=CCC(C(C)(C)O)CC1 (stereo not drawn) [Example K31, N-{6-[4-(1-Hydroxy-1-methylethyl)cyclohex-1-en-1-yl]-5-methylpyridin-3-yl}-5-methyl-1-[5-(trifluoromethyl)pyridin-2-yl]-1H-pyrazole-4-carboxamide]	15.8%
0.00632 µM	Cc1c(C(=O)Nc2ccc(C3=CCC(C(C)(C)O)CC3)nc2)cnn1-c1ccc(C(F)(F)F)cn1 (stereo not drawn) [Example K32, N-{6-[4-(1-Hydroxyl-methylethyl)cyclohex-1-en-1-yl]pyridin-3-yl}-5-methyl-1-[5-(trifluoromethyl)pyridin-2-yl]-1H-pyrazole-4-carboxamide]	11.3%
0.206 µM	CC[C@]1(O)CC[C@](C#N)(c2ccc(NC(=O)c3cnn(-c4ccc(F)cc4)c3C)cn2)CC1 [Example K33, N-[6-(r-1-Cyano-4-ethyl-c-4-hydroxycyclohexan-1-yl)pyridin-3-yl]-1-(4-fluorophenyl)-5-methyl-1H-pyrazole-4-carboxamide]	8%
0.154 µM	CC[C@]1(O)CC[C@@](C#N)(c2ccc(NC(=O)c3cnn(-c4ccc(C)cc4)c3C)cn2)CC1 [Example K34, N-[6-(r-1-Cyano-4-ethyl-t-4-hydroxycyclohexan-1-yl)pyridin-3-yl]-5-methyl-1-(4-methylphenyl)-1H-pyrazole-4-carboxamide]	0.5%
0.124 µM	CC[C@]1(O)CC[C@](C#N)(c2ccc(NC(=O)c3cnn(-c4ccc(C)cc4)c3C)cn2)CC1 [Example K36, N-[6-(r-1-Cyano-4-ethyl-c-4-hydroxycyclohexan-1-yl)pyridin-3-yl]-5-methyl-1-(4-methylphenyl)-1H-pyrazole-4-carboxamide]	8.1%
0.0581 µM	Cc1c(C(=O)Nc2cnc(C3=CCC(N4CCOCC4)CC3)c(C#N)c2)cnn1-c1ccc(C(F)(F)F)cn1 (stereo not drawn) [Example K38, N-{5-Cyano-6-[4-(morpholin-4-yl)cyclohex-1-en-1-yl]pyridin-3-yl}-5-methyl-1-[5-(trifluoromethyl)pyridin-2-yl]-1H-pyrazole-4-carboxamide]	44.1%
0.161 µM	Cc1cc(NC(=O)c2cnn(-c3ccc(C(F)(F)F)cn3)c2C)cnc1C1=CCN(C(=O)C(C)(C)C)CC1 [Example K41, N-{6-[1-(2,2-Dimethylpropanoyl)-1,2,3,6-tetrahydropyridin-4-yl]-5-methylpyridin-3-yl}-5-methyl-1-[5-(trifluoromethyl)pyridin-2-yl]-1H-pyrazole-4-carboxamide]	25.6%
0.0462 µM	Cc1cc(NC(=O)c2cnn(-c3ccc(C(F)(F)F)cn3)c2C)cnc1C1=CCN(S(=O)(=O)C(C)C)CC1 [Example K45, 5-Methyl-N-{5-methyl-6-[1-(propane-2-sulfonyl)-1,2,3,6-tetrahydropyridin-4-yl]pyridin-3-yl}-1-[5-(trifluoromethyl)pyridin-2-yl]-1H-pyrazole-4-carboxamide]	21.1%
0.0373 µM	Cc1c(C(=O)Nc2ccc(C3(C#N)CCN(S(=O)(=O)C(C)C)CC3)nc2)cnn1-c1ccc(C(F)(F)F)cn1 [Example K51, N-{6-[4-Cyano-1-(propane-2-sulfonyl)piperidin-4-yl]pyridin-3-yl}-5-methyl-1-[5-(trifluoromethyl)pyridin-2-yl]-1H-pyrazole-4-carboxamide]	43.7%
0.16 µM	Cc1cc(NC(=O)c2cnn(-c3ccc(C(F)(F)F)cn3)c2C)cnc1C1=CCN(C(=O)N2CCCC2)CC1 [Example K52, 5-Methyl-N-{5-methyl-1-(pyrrolidin-1-ylcarbonyl)-6-[1,2,3,6-tetrahydropyridin-4-yl]pyridin-3-yl}-1-[5-(trifluoromethyl)pyridin-2-yl]-1H-pyrazole-4-carboxamide]	31.5%
0.0464 µM	Cc1cc(NC(=O)c2cnn(-c3ccc(C(F)(F)F)cn3)c2C)cnc1C1CCN(S(=O)(=O)C(C)C)CC1 [Example K55, 5-Methyl-N-{5-methyl-6-[1-(propane-2-sulfonyl)piperidin-4-yl]pyridin-3-yl}-1-[5-(trifluoromethyl)pyridin-2-yl]-1H-pyrazole-4-carboxamide]	29.5%
0.0472 µM	Cc1cc(NC(=O)c2cnn(-c3ccc(C(F)(F)F)cn3)c2C)cnc1C1CCN(C(=O)C(F)(F)F)CC1 [Example K60, 5-Methyl-N-{5-methyl-6-[1-(trifluoroacetyl)piperidin-4-yl]pyridin-3-yl}-1-[5-(trifluoromethyl)pyridin-2-yl]-1H-pyrazole-4-carboxamide]	22.8%
0.157 µM	Cc1c(C(=O)Nc2cnc(C3=CCC(N(C)C(=O)C(C)(C)C)CC3)cn2)cnn1-c1ccc(C(F)(F)F)cn1 (stereo not drawn) [Example K64, N-(5-{4-[N-(2,2-Dimethylpropion-1-yl)-N-methylamino]cyclohex-1-en-1-yl}pyrazin-2-yl)-5-methyl-1-[5-(trifluoromethyl)pyridin-2-yl]-1H-pyrazole-4-carboxamide]	2.3%
